Molecular target: T1, Hepsin (Homo sapiens, UniProt P05981)
T1 construct: gene HPN; Extracellular part of human Hepsin (amino acids 45-417), SRCR and trypsin-like serine protease domains
Assay: chromogenic peptide (pyroGlu-Pro-Arg-pNA) protease assay with purified recombinant Hepsin; also pro-HGF cleavage
Assay type: biochemical

T1 sequence (P05981 45-162): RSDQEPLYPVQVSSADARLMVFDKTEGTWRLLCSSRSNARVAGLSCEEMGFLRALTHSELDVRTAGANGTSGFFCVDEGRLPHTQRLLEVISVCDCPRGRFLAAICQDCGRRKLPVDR
T1 sequence (P05981 163-417): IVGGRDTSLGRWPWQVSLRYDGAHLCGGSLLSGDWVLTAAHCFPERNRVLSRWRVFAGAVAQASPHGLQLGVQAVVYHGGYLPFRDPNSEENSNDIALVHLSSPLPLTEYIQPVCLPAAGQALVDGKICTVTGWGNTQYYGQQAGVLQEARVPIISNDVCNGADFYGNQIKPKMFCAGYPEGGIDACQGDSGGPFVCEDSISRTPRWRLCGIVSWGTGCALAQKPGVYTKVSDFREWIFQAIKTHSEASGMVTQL

**Q.** With Brc1ccc(C2Nc3cccc4cccc(c34)N2)cc1 [HepIn-13] as the molecule, how does the IC50 read?
**A.** The IC50 was 0.33 µM.

Source: PMC4012739, “Targeted inhibition of cell-surface serine protease Hepsin blocks prostate cancer bone metastasis” (Oncotarget, 2014)
